In patent US9951149B2, “Reversible heparin molecules and methods of making and using the same” (The University of North Carolina at Chapel Hill, priority 2013, dated 2018):
“Also recorded” adds a separate entry of the source.

Columns and labels:
antithrombin (AT) = antithrombin (AT) (Homo sapiens, UniProt P01008); assay: Binding affinity of LMWHs to antithrombin by affinity co-electrophoresis; conditions: 35S-labeled compounds; average of two or three determinations
Description: The dissociation constant (Kd) of each sample and AT was determined using affinity co-electrophoresis (Lee, M. K. & Lander, A. D., Proc. Natl. Acad. Sci. USA 88, 2768-2772, 1991). Approximately 1500-2500 cpm of ^35S-labeled LMWH Compounds 1 to 5 was loaded per lane with zones of AT at concentrations 0, 8, 16, 32, 60, 120, 250, 500 and 1000 nM. The gel was performed at 300 mA for 2 h, dried and analyzed on a Phospholmager (Amersham Biosciences, Wauwatosa, Wis., United States of America Storm 860). The retardation coefficient was calculated at R=(M0−M)/M0, where M0 is the mobility of the polysaccharide through the zone without AT, and M is the mobility of the sample through each separation zone. The retardation coefficient was then plotted against the retardation coefficient divided by its respective concentration of AT. The slope of the line represents −1/Kd.

human factor Xa [1] = assay: Neutralization of LMWHs by protamine in vitro (anti-Xa activity); assay type: biochemical; conditions: human plasma, protamine 0-90 μg/ml (FIG. 4B)
Description: Determination of the in vitro and ex vivo anti-Xa activity. Assays were based on a previously published method (Zhang, L. et al., J. Biol. Chem. 276, 42311-42321, 2001; Duncan et al., Biochim Biophys Acta 1671, 34-43, 2004). Briefly, human factor Xa (Enzyme Research Laboratories, South Bend, Ind., United States of America) was diluted to 50 Uml^−1 with PBS. The chromogenic substrates, S-2765 was from Diapharma (Westchester, Ohio, United States of America) and made up at 1 mgml^−1 in water. UFH (from US Pharmacopea), LOVENOX® (from local pharmacy) and LMWH Compounds 1 to 5) was dissolved in PBS at various concentrations (3 to 600 μgml^−1). The reaction mixture, which consisted of 20 μl of human plasma (Sigma-Aldrich, St. Louis, Mo., United States of America) and 8 μl of the solution containing the sample, was incubated at room temperature for 5 min. Factor Xa (100 μl) was then added. After incubating at room temperature for 4 min, 30 μl of S-2765 substrate was added. The absorbance of the reaction mixture was measured at 405 nm continuously for 5 min. The absorbance values were plotted against the reaction time. The initial reaction rates as a function of concentration were used to calculate the IC50 values.
The procedures followed a previous publication (Sundaram, M. et al., Proc. Natl. Acad. Sci. 100, 651-656, 2003). The LMWH Compounds and protamine chloride (Sigma-Aldrich) were dissolved in PBS. The concentrations of the LMWH samples for each Compound were different because each Compound has different IC50 value for the anti-Xa activity. […] The mixture (30 μl) was then subjected to anti-Xa activity measurement as described above.

human factor Xa [2] = assay: Neutralization of LMWHs by protamine in mice, ex vivo anti-Xa activity in mouse plasma; conditions: C57BL/6J mice, s.c. test compound, protamine 15 mgkg^−1 i.v. 30 min later, plasma 5 min later (FIG. 4C)
Description: The study was performed on eight week old male C57BL/6J mice (Jackson Laboratories, Bar Harbor, Me., United States of America) (n=4 per group). The mouse experiments were approved by the UNC Animal Care and Use Committees and complied with National Institutes of Health guidelines. Under isoflurane anesthesia, mice were subcutaneously administered with PBS, UFH (3 mgkg^−1), LOVENOX® (3 mgkg^−1) or Compound 5 (0.6 mgkg^−1) 30 min prior to a protamine administration. […] To obtain mouse plasma, blood samples were centrifuged at 4,000 g for 15 min at 4° C. Mouse plasma was then used to determine anti-Xa activity. Ex vivo analysis of anti-Xa activity was done similar to the in vitro study described above. Briefly, plasma (10 μl) from different groups of mice was incubated with 80 nM human factor Xa (10 μl) at room temperature for 4 minutes and S-2765 (1 mgml^−1, 30 μl) was then added. The anti-Xa activity in the mouse plasma from the PBS injected mice was defined as 100%. Statistical analysis for multiple comparisons was performed by two-way ANOVA with Bonferroni's post-hoc test (GraphPad Prism Software, La Jolla, Calif., United States of America).

mice = assay: Mouse model of tail bleeding; assay type: in vivo; conditions: for effect of protamine on primary bleeding time after tail transection: protamine 15 mgkg^−1 i.v. (FIG. 4D)
Description: Under isoflurane anesthesia, mice (n=8 per group) were administered with PBS or Compound 5 (0.6 mgkg^−1) subcutaneously, 30 min later PBS or protamine (15 mgkg^−1) was administered via retro-orbital intravenous injection. After 5 minutes the distal part of the tail was transected at the constant diameter (1.5 mm), approximately 3-4 mm from the end. That results in both arterial and venous bleeding. […] The primary bleeding time was defined as the time to the first cessation of bleeding. Subsequently, time for each reinitiated bleeding was also recorded, and used to calculate total bleeding time. One mouse in Compound 5/protamine group received an inaccurate protamine injection and was excluded from the study. The blood collected in PBS was used to calculate total blood volume loss. Formic acid was added to samples (70:30 ratio) and absorbance was measured at 405 nm. A standard curve was generated by mixing […] of PBS with known amounts of blood. Statistical analysis between each group was performed by one-way ANOVA (GraphPad Prism Software, La Jolla, Calif., United States of America) followed by Bonferroni's multiple comparison test.

antithrombin (AT), sequence (P01008 33-464): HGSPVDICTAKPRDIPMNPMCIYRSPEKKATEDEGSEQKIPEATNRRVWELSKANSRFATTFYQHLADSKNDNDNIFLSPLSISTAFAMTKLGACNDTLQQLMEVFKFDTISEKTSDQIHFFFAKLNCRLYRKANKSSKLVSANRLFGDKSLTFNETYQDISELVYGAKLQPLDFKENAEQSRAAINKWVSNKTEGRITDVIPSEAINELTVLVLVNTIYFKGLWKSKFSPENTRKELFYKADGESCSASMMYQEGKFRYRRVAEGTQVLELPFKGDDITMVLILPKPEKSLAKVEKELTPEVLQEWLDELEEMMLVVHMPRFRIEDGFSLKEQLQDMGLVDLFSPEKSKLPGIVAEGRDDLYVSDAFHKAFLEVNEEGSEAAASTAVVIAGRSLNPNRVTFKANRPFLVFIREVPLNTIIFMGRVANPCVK

Row | Kd (antithrombin (AT)) [nM] | Compound | in vitro reversibility of anti-Xa activity by protamine (human factor Xa [1]) | ex vivo reversibility of anti-FXa activity by protamine (human factor Xa [2]) | effect of protamine on blood loss after tail transection (mice; mice, Compound 5 0.6 mgkg^−1 s.c., protamine 15 mgkg^−1 i.v.) | effect of protamine on primary bleeding time after tail transection (mice; mice, Compound 5 0.6 mgkg^−1 s.c.) | effect of protamine on primary bleeding time after tail transection (mice; mice, Compound 5 0.6 mgkg^−1 s.c., listed as compound 5) | reversal of anti-Xa activity in an in vivo experiment (mice; mouse tail bleeding model, protamine)
1 | 7 | O=C(O)C1OC(OC2C(COS(=O)(=O)O)OC(OC3C(C(=O)O)OC(OC4C(COS(=O)(=O)O)OC(OC5C(C(=O)O)OC(Oc6ccc([N+](=O)[O-])cc6)C(O)C5O)C(NS(=O)(=O)O)C4O)C(OS(=O)(=O)O)C3O)C(NS(=O)(=O)O)C2OS(=O)(=O)O)C(O)C(O)C1OC1OC(COS(=O)(=O)O)C(O)C(O)C1NS(=O)(=O)O (stereo not drawn) [Compound 1] | Unlike Compounds 1, 2, and 3, Compound 4 was partially reversed by protamine |  |  |  |  | 
2 | 8 | O=C(O)C1OC(OC2C(COS(=O)(=O)O)OC(OC3C(C(=O)O)OC(OC4C(COS(=O)(=O)O)OC(OC5C(C(=O)O)OC(OC6C(COS(=O)(=O)O)OC(OC7C(C(=O)O)OC(Oc8ccc([N+](=O)[O-])cc8)C(O)C7O)C(NS(=O)(=O)O)C6O)C(OS(=O)(=O)O)C5O)C(NS(=O)(=O)O)C4O)C(OS(=O)(=O)O)C3O)C(NS(=O)(=O)O)C2OS(=O)(=O)O)C(O)C(O)C1OC1OC(COS(=O)(=O)O)C(O)C(O)C1NS(=O)(=O)O (stereo not drawn) [Compound 2] | Unlike Compounds 1, 2, and 3, Compound 4 was partially reversed by protamine |  |  |  |  | 
3 | 5 | O=C(O)C1OC(OC2C(COS(=O)(=O)O)OC(OC3C(C(=O)O)OC(OC4C(COS(=O)(=O)O)OC(OC5C(C(=O)O)OC(OC6C(COS(=O)(=O)O)OC(OC7C(C(=O)O)OC(OC8C(COS(=O)(=O)O)OC(OC9C(C(=O)O)OC(Oc%10ccc([N+](=O)[O-])cc%10)C(O)C9O)C(NS(=O)(=O)O)C8O)C(OS(=O)(=O)O)C7O)C(NS(=O)(=O)O)C6O)C(OS(=O)(=O)O)C5O)C(NS(=O)(=O)O)C4O)C(OS(=O)(=O)O)C3O)C(NS(=O)(=O)O)C2OS(=O)(=O)O)C(O)C(O)C1OC1OC(COS(=O)(=O)O)C(O)C(O)C1NS(=O)(=O)O (stereo not drawn) [Compound 3] | Unlike Compounds 1, 2, and 3, Compound 4 was partially reversed by protamine |  |  |  |  | 

Row | Compound | Kd (antithrombin (AT)) [nM] | in vitro reversibility of anti-Xa activity by protamine (human factor Xa [1]) | ex vivo reversibility of anti-FXa activity by protamine (human factor Xa [2]) | effect of protamine on blood loss after tail transection (mice; mice, Compound 5 0.6 mgkg^−1 s.c., protamine 15 mgkg^−1 i.v.) | effect of protamine on primary bleeding time after tail transection (mice; mice, Compound 5 0.6 mgkg^−1 s.c.) | effect of protamine on primary bleeding time after tail transection (mice; mice, Compound 5 0.6 mgkg^−1 s.c., listed as compound 5) | reversal of anti-Xa activity in an in vivo experiment (mice; mouse tail bleeding model, protamine)
4 | CC(=O)NC1C(OC2C(C(=O)O)OC(OC3C(COS(=O)(=O)O)OC(OC4C(C(=O)O)OC(OC5C(COS(=O)(=O)O)OC(OC6C(C(=O)O)OC(OC7C(COS(=O)(=O)O)OC(OC8C(C(=O)O)OC(OC9C(COS(=O)(=O)O)OC(OC%10C(C(=O)O)OC(OC%11C(COS(=O)(=O)O)OC(OC%12C(C(=O)O)OC(Oc%13ccc([N+](=O)[O-])cc%13)C(O)C%12O)C(NS(=O)(=O)O)C%11O)C(OS(=O)(=O)O)C%10O)C(NS(=O)(=O)O)C9O)C(OS(=O)(=O)O)C8O)C(NS(=O)(=O)O)C7O)C(OS(=O)(=O)O)C6O)C(NS(=O)(=O)O)C5O)C(OS(=O)(=O)O)C4O)C(NS(=O)(=O)O)C3OS(=O)(=O)O)C(O)C2O)OC(COS(=O)(=O)O)C(O)C1O (stereo not drawn) [Compound 4] | 30 | partially reversed by protamine |  |  |  |  | 
5 | CC(=O)NC1C(OC2C(C(=O)O)OC(OC3C(COS(=O)(=O)O)OC(OC4C(C(=O)O)OC(OC5C(COS(=O)(=O)O)OC(OC6C(C(=O)O)OC(OC7C(COS(=O)(=O)O)OC(OC8C(C(=O)O)OC(OC9C(COS(=O)(=O)O)OC(OC%10C(C(=O)O)OC(OC%11C(COS(=O)(=O)O)OC(OC%12C(C(=O)O)OC(Oc%13ccc([N+](=O)[O-])cc%13)C(O)C%12O)C(NS(=O)(=O)O)C%11O)C(OS(=O)(=O)O)C%10O)C(NS(=O)(=O)O)C9OS(=O)(=O)O)C(OS(=O)(=O)O)C8O)C(NS(=O)(=O)O)C7O)C(OS(=O)(=O)O)C6O)C(NS(=O)(=O)O)C5O)C(OS(=O)(=O)O)C4O)C(NS(=O)(=O)O)C3OS(=O)(=O)O)C(O)C2O)OC(COS(=O)(=O)O)C(O)C1O (stereo not drawn) [Compound 5] | 28 | same protamine reversibility as UFH and greater reversibility than LOVENOX®; also recorded: can be reversed by protamine | reversible | reduced the blood loss | protamine shortened the primary bleeding time | significantly shortened the primary bleeding time | can be reversed
